The term IC50 denotes the concentration needed to halve the response being measured. Broadly, the melting point is the temperature, or range, at which the solid turns liquid.

This is an account of results in article PMC5559490, “Synthesis of Saccharumoside-B analogue with potential of antiproliferative and pro-apoptotic activities” (Scientific Reports, 2017).

A value given as a limit tells only on which side of the number the result lay.

Data set [1] has as its system CaCo-2 colon cancer cells. The data set can be described thus: MTT antiproliferative assay, CaCo-2. The class given is cell-based. To be noted: Homo sapiens, Caco-2; MTT assay; cancer cell line; mean of three independent experiments ± S.E.M.; read-out: IC50 CaCo-2 Colon. In general terms: Formazan colour is commonly taken as a measure of viable cells.
Data set [2] has as its system HeLa cervical cancer cells. The data set can be described thus: MTT antiproliferative assay, HeLa. It is filed as cell-based. The settings on record: Homo sapiens, MTT assay, cancer cell line, mean of three independent experiments ± S.E.M., read-out: IC50 HeLa Cervical.
The next data set deals with HL-60 leukemia cells. The experiment in a line: MTT antiproliferative assay, HL-60. The class given is cell-based, human. The settings on record: Homo sapiens, HL-60; MTT assay; cancer cell line; mean of three independent experiments ± S.E.M.; read-out: IC50 HL-60 Leukemia.
The test system of data set [3] is DU145 prostate cancer cells. The experiment in a line: MTT antiproliferative assay, DU145. It is filed as cell-based. To be noted: Homo sapiens, DU-145; MTT assay; cancer cell line; mean of three independent experiments ± S.E.M.; read-out: IC50 DU145 Prostate.
In data set [4] the test system is MCF-10A mammary epithelial cells. The experiment in a line: MTT assay on normal MCF-10A cells. It is filed as cell-based. The settings on record: Homo sapiens, MTT assay, normal cells, 48 h, read-out: IC50 MCF-10A Breast (normal cell line).
The test system of data set [5] is MCF-7 breast cancer cells. The data set can be described thus: MTT antiproliferative assay, MCF-7. The settings on record: Homo sapiens, MCF7; MTT assay; cancer cell line; mean of three independent experiments ± S.E.M.; read-out: IC50 MCF-7 Breast. The class given is cell-based.
The test system of data set [6] is MIA PaCa-2 pancreatic cancer cells. The data set can be described thus: MTT antiproliferative assay, MIA PaCa-2. The class given is cell-based. To be noted: Homo sapiens, MIA PaCa-2; MTT assay; cancer cell line; mean of three independent experiments ± S.E.M.; read-out: IC50 MIA PaCa-2 Pancreatic.
The test system of data set [7] is human peripheral blood mononuclear cells (PBMC). The experiment in a line: MTT assay on normal PBMC. It is filed as cell-based. To be noted: MTT assay, normal cells, 48 h, read-out: IC50 PBMC (normal cells).

Take `COc1cc(CO)ccc1OC1OC(COC(=O)c2ccccc2)C(O)C(O)C1O` (centres unmarked) [Compound 9b, (6-(4-(hydroxymethyl)-2-methoxyphenoxy)-tetrahydro-3,4,5-trihydroxy-2H-pyran-2-yl)methyl benzoate]: the melting point was in the range of 187 to 189 °C. Further, the half-maximal inhibitory concentration (IC50) in [1] came out at 47.3 ± 1.62 µM. Moreover, in data set [2], the IC50 was found to be 36.7 ± 2.31 µM. For the same compound, the IC50 in the data set on HL-60 leukemia cells turned out to be 22.8 ± 1.3 µM. In data set [3], the IC50 was determined as 37.3 ± 2.54 µM. In [4], the concentration for half-maximal inhibition (IC50) was over 100 µM. In addition, the half-inhibitory concentration (IC50) in [5] is 26.4 ± 0.96 µM. Besides, the half-inhibitory concentration (IC50) in data set [6] was 39.3 ± 1.42 µM. Further, the IC50 in [7] was over 100 µM.
The compound `COc1cc(CO)ccc1OC1OC(COC(=O)c2ccc(C)cc2)C(O)C(O)C1O` (centres unmarked) [Compound 9c, (6-(4-(hydroxymethyl)-2-methoxyphenoxy)-tetrahydro-3,4,5-trihydroxy-2H-pyran-2-yl)methyl 4-methylbenzoate] registered a melting point of 228 to 230 °C. Besides, the concentration for half-maximal inhibition (IC50) in [1] turned out to be 13.7 ± 0.63 µM. In addition, the IC50 in data set [2] worked out at 14.2 ± 0.68 µM. In the data set with HL-60 leukemia cells, the concentration for half-maximal inhibition (IC50) came to 12.5 ± 0.81 µM. In addition, the IC50 in data set [3] came to 12.4 ± 0.47 µM. The half-maximal inhibitory concentration (IC50) in data set [4] is over 100 µM. Besides, the IC50 in [5] was found to be 9.34 ± 0.48 µM. Also, the IC50 in data set [6] was 13.3 ± 0.25 µM. Further, in data set [7], the IC50 is over 100 µM.
The compound `COc1cc(OC)cc(C(=O)OCC2OC(Oc3ccc(CO)cc3OC)C(O)C(O)C2O)c1` (centres unmarked) [Compound 9d, (6-(4-(hydroxymethyl)-2-methoxyphenoxy)-tetrahydro-3,4,5-trihydroxy-2H-pyran-2-yl)methyl 3,5-dimethoxybenzoate] returned a melting point of 199 to 201 °C. In addition, the concentration for half-maximal inhibition (IC50) in data set [1] amounted to 37.4 ± 1.65 µM. Also, the IC50 in [2] came to 39.5 ± 2.43 µM. Moreover, in the data set on HL-60 leukemia cells, the 50% inhibitory concentration (IC50) is 25.2 ± 1.92 µM. Also, the IC50 in [3] was determined as 42.5 ± 1.51 µM. Besides, in data set [4], the IC50 is over 100 µM. Also, in data set [5], the 50% inhibitory concentration (IC50) worked out at 28.3 ± 1.47 µM. Further, the IC50 in [6] was found to be 44.6 ± 2.67 µM. Further, in data set [7], the IC50 was over 100 µM.
As for `COc1cc(CO)ccc1OC1OC(COC(=O)c2cc(OC)c(OC)c(OC)c2)C(O)C(O)C1O` (centres unmarked) [Compound 9e, (6-(4-(hydroxymethyl)-2-methoxyphenoxy)-tetrahydro-3,4,5-trihydroxy-2H-pyran-2-yl)methyl 3,4,5-trimethoxybenzoate], the melting point was 168 to 170 °C. For the same compound, the IC50 in data set [1] worked out at 43.5 ± 1.87 µM. Further, in the data set with HL-60 leukemia cells, the IC50 was found to be 22.2 ± 1.32 µM. In data set [3], the IC50 is 49.4 ± 1.72 µM. Also, the 50% inhibitory concentration (IC50) in data set [4] was over 100 µM. Moreover, the IC50 in data set [5] was 33.4 ± 0.76 µM. The IC50 in [6] turned out to be 36.3 ± 1.58 µM. In addition, the IC50 in data set [7] is over 100 µM.
For the compound `COc1cc(CO)ccc1OC1OC(COC(=O)c2ccccc2I)C(O)C(O)C1O` (centres unmarked) [Compound 9g, (6-(4-(hydroxymethyl)-2-methoxyphenoxy)-tetrahydro-3,4,5-trihydroxy-2H-pyran-2-yl)methyl 2-iodobenzoate], the melting point was 128 to 130 °C. Also, the IC50 in data set [1] was found to be 43.9 ± 2.52 µM. The IC50 in [2] was 41.9 ± 3.15 µM. Also, the half-maximal inhibitory concentration (IC50) with HL-60 leukemia cells worked out at 33.5 ± 1.45 µM. Moreover, the half-maximal inhibitory concentration (IC50) in [3] stood at 38.32 ± 0.37 µM. Besides, in data set [4], the concentration for half-maximal inhibition (IC50) is over 100 µM. Besides, in data set [5], the IC50 came out at 28.9 ± 0.47 µM. Besides, in data set [6], the IC50 came to 23.4 ± 1.53 µM. Moreover, in data set [7], the half-inhibitory concentration (IC50) was over 100 µM.
Turning to `COc1cc(CO)ccc1OC1OC(COC(=O)c2cccnc2)C(O)C(O)C1O` (centres unmarked) [Compound 9h, (6-(4-(hydroxymethyl)-2-methoxyphenoxy)-tetrahydro-3,4,5-trihydroxy-2H-pyran-2-yl)methyl nicotinate], the melting point lay in the range of 194 to 196 °C. The half-maximal inhibitory concentration (IC50) in data set [1] came to 49.04 ± 0.48 µM. Also, the concentration for half-maximal inhibition (IC50) in [2] was 35.4 ± 2.2 µM. Besides, the IC50 in the data set with HL-60 leukemia cells was 30.2 ± 1.32 µM. Further, the IC50 in [3] was determined as 42.1 ± 1.52 µM. For the same compound, the IC50 in data set [4] is over 100 µM. For the same compound, the IC50 in [5] was 33.9 ± 0.48 µM. Besides, the half-inhibitory concentration (IC50) in [6] was found to be 33.9 ± 1.41 µM. In addition, the IC50 in data set [7] is over 100 µM.
